pEC50: −log10 of the molar value. Active and inactive are the calls of the source.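 Rule for the calls: active = at least 15% GFP+ cells at the top dose together with an EC50 below 10 µM; inactive = the rest.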

A short description of experiment [1]: differentiation promoters in HOXA9-arrested myeloid cells, SAR follow-up, HOXA9-ER marrow cells, GFP flow, set 1 (AID 743181). Particulars: HOXA9-ER marrow cells, lysozyme-GFP differentiation, flow; at 10 µM (top of the series).
The test system of experiment [2] is HOXA9-ER marrow cells, lysozyme-GFP differentiation, flow. Described as above.

Take `COc1ccccc1C(C)NC(=O)CCNC(=O)c1ccc(Cl)cc1` (stereo not given): the GFP+ cells, differentiation in experiment [1] was 0% (inactive).

For the compound `O=C(CNC(=O)c1ccc(Cl)cc1)N[C@@H]1CCCc2ccccc21`, the GFP+ cells, differentiation in experiment [1] was 4% (inactive). Still for that read-out and setting: the result for `O=C(CNC(=O)c1ccc(Cl)c(Cl)c1)N[C@@H]1CCCc2ccccc21` reads 2% (inactive); that for `O=C(CCCNC(=O)c1ccc(OC(F)(F)F)cc1)N[C@@H]1CCCc2ccccc21`, 1% (inactive).

In the case of `C[C@@H](NC(=O)CCNC(=O)c1ccc(Cl)cc1)c1ccccc1`, in experiment [1], the GFP+ cells, differentiation was 1% (inactive).

In the case of `O=C(CCNC(=O)c1ccc(Cl)cc1)N[C@@H]1CCc2ccccc21`, the pEC50 (in general, −log10 of the EC50, conventionally taken in molar units) in experiment [2] was 5.00.

In the case of `O=C(CCNC(=O)c1ccc2c(c1)OC(F)(F)O2)N[C@@H]1CCCc2ccccc21`, the pEC50 in experiment [2] is 5.33. As to `O=C(CNC(=O)c1ccc(C(F)(F)F)cc1)N[C@@H]1CCCc2ccccc21`, the GFP+ cells, differentiation in experiment [1] is 1% (inactive). Same read-out and setting: next, `CC(NC(=O)CCNC(=O)c1ccc(Cl)cc1)c1ccc(F)cc1` (stereo not given): 1% (inactive). Consider `O=C(CCNC(=O)c1ccc(Cl)cc1)N[C@H]1CCCc2ccccc21`, for which the GFP+ cells, differentiation in experiment [1] was 1% (inactive).

`O=C(CCCNC(=O)c1ccc(Cl)c(Cl)c1)N[C@@H]1CCCc2ccccc21`: the GFP+ cells, differentiation in experiment [1] was 1% (inactive). Same read-out and setting: next, `NCCC(=O)N[C@@H]1CCCc2ccccc21`: 1% (inactive); `CC(NC(=O)C1CCCN(C(=O)c2ccc(Cl)cc2)C1)c1ccccc1` (stereo not given): 0% (inactive).

As to `O=C(CCNC(=O)c1ccc(OC(F)(F)F)cc1)N[C@@H]1CCCc2ccccc21`, in experiment [2], the pEC50 was 5.79.

`O=C(NC1CCc2ccccc21)C1CCCN(C(=O)c2ccc(Cl)cc2)C1` (stereo not given): the GFP+ cells, differentiation in experiment [1] was 1% (inactive). Same read-out and setting: next, `O=C(Cc1ccc(Cl)cc1)NCCC(=O)N[C@@H]1CCCc2ccccc21`: 16% (inactive); `O=C(CCCNC(=O)c1ccc(Cl)cc1)N[C@@H]1CCCc2ccccc21`: 2% (inactive).

With `O=C(CCNC(=O)c1ccc(Cl)cc1)NC1CCCc2ccccc21` (stereo not given), in experiment [2], the pEC50 was 5.30. Regarding `CC(=O)NCCC(=O)N[C@@H]1CCCc2ccccc21`, the GFP+ cells, differentiation in experiment [1] is 0% (inactive). With `O=C(CCNC(=O)c1ccc(Cl)cc1)NC1CCCCC1`, the GFP+ cells, differentiation in experiment [1] was 1% (inactive). On the same count and under the same terms, next, `O=C(CNC(=O)c1ccc(OC(F)(F)F)cc1)N[C@@H]1CCCc2ccccc21`: 1% (inactive); `O=C(CCCNC(=O)c1ccc(C(F)(F)F)cc1)N[C@@H]1CCCc2ccccc21`: 1% (inactive); `O=C(CCNC(=O)c1ccccc1)N[C@@H]1CCCc2ccccc21`: 3% (inactive). In the case of `O=C(O)c1cccnc1Nc1ccc(Cl)cc1`, in experiment [2], the negative logarithm of the EC50 (pEC50) was 5.27. As for `O=C(CCNC(=O)c1cccc(Cl)c1)N[C@@H]1CCCc2ccccc21`, the pEC50 in experiment [2] is 5.27. Consider `O=C(CCNC(=O)c1ccc(Cl)c(Cl)c1)N[C@@H]1CCCc2ccccc21`, for which, in experiment [2], the pEC50 was 5.49. On to `CC(c1ccccc1)N(C)C(=O)CCNC(=O)c1ccc(Cl)cc1` (stereo not given), for which, in experiment [1], the GFP+ cells, differentiation was 0% (inactive).

Take `COc1ccc(C(=O)NCCC(=O)N[C@@H]2CCCc3ccccc32)cc1`: the pEC50 in experiment [2] was 5.31. `Cc1ccc(C)c(OCCn2cc(C(=O)O)c3ccccc32)c1`: the GFP+ cells, differentiation in experiment [1] is 0% (inactive). As for `O=C(CCNC(=O)c1ccc(C(F)(F)F)cc1)N[C@@H]1CCCc2ccccc21`, the pEC50 in experiment [2] was 5.58. Turning to `CC(C)(C)OC(=O)NCCC(=O)N[C@H]1CCCc2ccccc21`, in experiment [1], the GFP+ cells, differentiation was 1% (inactive). Same read-out and setting: next, `O=C(NC1CCOc2ccccc21)C1CCCN(C(=O)c2ccc(Cl)cc2)C1` (stereo not given): 1% (inactive). Take `O=C(CCNC(=O)c1ccc(F)cc1)N[C@@H]1CCCc2ccccc21`: in experiment [1], the GFP+ cells, differentiation was 12% (inactive).

`CC(C)(C)OC(=O)NCCC(=O)N[C@@H]1CCCc2ccccc21`: the GFP+ cells, differentiation in experiment [1] was 1% (inactive).

As for `O=C(CCNC(=O)c1ccc(Cl)cc1)N[C@@H]1CCCc2ccccc21`, the pEC50 in experiment [2] is 5.46. `O=C(O)c1ccccc1OCc1ccccc1Br`: the GFP+ cells, differentiation in experiment [1] was 1% (inactive). With `N#Cc1ccc(C(=O)NCCC(=O)N[C@@H]2CCCc3ccccc32)cc1`, the GFP+ cells, differentiation in experiment [1] was 16% (inactive).

As for `Cc1cccc(C(=O)NCCC(=O)NC2CCCc3ccccc32)c1` (stereo not given), the GFP+ cells, differentiation in experiment [1] was 1% (inactive). As to `Cc1ccc(C(=O)NCCC(=O)N[C@@H]2CCCc3ccccc32)cc1`, the pEC50 in experiment [2] was 5.06. Consider `CC(NC(=O)CCNC(=O)c1ccc(Cl)cc1)c1ccc2c(c1)OCO2` (stereo not given), for which the GFP+ cells, differentiation in experiment [1] is 0% (inactive).

The values are drawn from PubChem BioAssay AID743181 (NMMLSC, 2013).
